The subject of data set [1] is tps1Δ cells. In words: Growth rescue of tps1Δ strain on glucose (growth curves, 2% galactose medium). Type of data set: cell-based, S. cerevisiae. The conditions noted are these: 2.5 mM glucose. The essentials:
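tps1Δ yeast pregrown in Complete Synthetic medium with 2% galactose, washed, resuspended to OD 0.1; compounds added 10 min before glucose. Growth followed as OD595 every 30 min at 30 °C in at least three technical replicates.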

The test system of data set [2] is KMS-12-PE multiple myeloma cells. Description: Steady-state glucose consumption and lactate production in KMS-12-PE cells. In kind it is cell-based, human. The conditions noted are these: 25 μM, 1 mM glucose, 8 h. How it is done:
(§1) The influence of WBC compounds on the steady-state glucose consumption rate was studied in the A549 adenocarcinoma and KMS-12-PE multiple myeloma cell lines. As such, different parameters needed to be optimized depending on whether cells were adherent or in suspension. As such, A549 cells were incubated at 125,000 cells/well in a 24-well plate in 300 μL RPMI medium for 8 h. For the KMS-12-PE cell line, 100,000 cells/well were incubated in 100 μL RPMI medium in a 96-well plate for 8 h. Medium was collected, spun down and HPLC-analyzed for measuring glucose and lactate levels. Metabolite levels were corrected for cell number, which always varied little over the span of 8 h. For every condition, at least 4 technical repeats were included.

The subject of data set [3] is MCF10A breast epithelia cell line transformed with the H-RAS^V12 allele. In words: MCF10A H-RAS^V12 growth and apoptosis (IncuCyte). In kind it is cell-based, human. The following applies: 25 μM. How it is done: For both adherent A549 and MCF10Δ H-RAS^V12 cell lines, growth curves were established using the IncuCyte® ZOOM technology. By collecting phase contrast images, the IncuCyte® software provides a calculated confluency percentage from which growth curves can be deducted.
Cells were seeded at a density of 1000-1500 cells/well in a Nunc-Edge™ 96-well plate (Thermo Fisher Scientific) and growth was typically measured over 3 to 5 days. For the measurement of apoptosis induction using the MCF10Δ H-RAS^V12 cell line, the IncuCyte® Caspase-3/7 green dye was added to the medium in the recommended concentration at the beginning of the growth curve experiment. Apoptosis was detected by taking fluorescent images by excitation at 488 nm followed by IncuCyte® software analysis. Cell growth of the KMS-12-PE multiple myeloma cell line, which grows in suspension, was measured by manual cell counting. Cells were initially seeded at a density of 10^4 cells/well and incubated for 4 days after which the cell number was counted. For all cell lines, the same medium used for pregrowth was also used for the growth curve experiment, albeit with different glucose concentrations depending on the experimental design. With compound administration, the final concentration of DMSO never exceeded 0.1%. Typically, at least four technical repeats were included per condition.

The subject of data set [4] is A549 lung adenocarcinoma cells. Description: Steady-state glucose consumption and lactate production in A549 cells. Type of data set: cell-based, human. The conditions noted are these: 25 μM, 1 mM glucose, 8 h. How it is done:
as §1

Data set [5] concerns U266 multiple myeloma cell line. Description: U266 proliferation (cell count). In kind it is cell-based, human. The conditions noted are these: 25 μM, 4 days, RPMI with 1 mM glucose. How it is done: a. Cell count of the U266 multiple myeloma cell line after 4 days of growth on RPMI medium with 1 mM glucose. Cells were treated with either DMSO or 25 μM of WBC-A, -15C, -4C or -11C. Glucose consumption (b.) or lactate secretion (c.) rates are shown for U266 cells incubated in RPMI medium supplemented with 1 mM glucose for 8 h.

Data set [6] has as its system A549 lung adenocarcinoma cells. In words: A549 cell proliferation / growth inhibition. Type of data set: cell-based, human. The conditions noted are these: 1 mM glucose; for Potency in reducing maximal growth rate of A549 cells: 6.25-50 μM. The essentials: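 A549 growth screened in RPMI with 1 mM glucose, compounds at 50 μM; cell number from counts of Hoechst-stained nuclei after 3 days. Growth curves also followed by IncuCyte phase-contrast confluency over 3–5 days (1000–1500 cells/well), DMSO ≤0.1%, ≥4 technical repeats.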

Data set [7] can be described thus: Warbicin toxicity and tolerability in mice. In kind it is in vivo, NMRI-nu mice. The following applies: for Loss in body weight over 20 days: daily i.p. 5, 10 and 20 mg/kg, nude mice; for AST/ALT ratio vs vehicle: sera after 20 days, 5, 10, 20 mg/kg i.p.; for Blood glucose level vs vehicle: sera post mortem after 20 days, 5, 10, 20 mg/kg i.p. How it is done:
Warbicin in vivo toxicity and tolerability was examined by subjecting NMRI-nu mice to daily intraperitoneal injection of either WBC-A, WBC-15C, WBC-4C or WBC-11C. Compounds were dosed at either 5 mg/kg, 10 mg/kg or 20 mg/kg over a period of 20 days. Three mice were used per condition. To evaluate toxicity, change in body weight was registered daily. As a humane endpoint, mice that lost more than 20% of their original body weight were prematurely sacrificed. An optimal dissolve strategy was developed to administer WBC compounds by intraperitoneal injection. Due to their considerable hydrophobicity, compounds were dissolved in a sterilized 1×PBS, 5% DMSO and 5% Tween-80 solution. For WBC-A, -15C and -4C, this gives an initial clear solution that gradually changes over time into a homogenous suspension which can still be administered in a reproducible way. For WBC-11C it immediately results in a homogenous suspension.

Data set [8] deals with A549 lung adenocarcinoma cells. In words: 2-deoxyglucose uptake in A549 cells. In kind it is cell-based, human. The following applies: for Type of inhibition of 2-deoxyglucose uptake in A549 cells: Lineweaver-Burk plot analysis. On the procedure: Zero-trans glucose uptake in A549 cells was approximated by measuring the uptake of [1,2-^3H]2-deoxyglucose. For this purpose, A549 cells were pregrown in RPMI medium containing 10 mM glucose in a 24-well plate to a cell density of around 100,000 cells/well. Prior to adding radioactive label, cells were gently washed twice in Krebs-Ringer-HEPES buffer (50 mM HEPES pH 7.4, 137 mM NaCl, 4.7 mM KCl, […], 1.3 mM MgSO4 and 0.1% w/v BSA) at 30° C. to remove any residual sugar. RPMI medium without sugar containing the compound intended for treatment, was added to the cells for 15 min at 37° C. to allow adequate interaction of the cells with the compound.
The uptake measurement was initiated by adding an equal volume of medium containing radiolabeled 2DG. After 3-4 min, medium was aspirated and cells were gently washed three times with ice-cold Krebs-Ringer-HEPES buffer. Cells were lysed by adding 200 μL of ice-cold 0.1 M NaOH solution and incubating the plate for 10 min at 37° C. Cell lysates were transferred to scintillation vials for subsequent scintillation counting. For blank measurements, cells were incubated with 50 μM Cytochalasin B prior to the uptake measurement.

Data set [9] deals with tps1Δ cells. Description: Zero-trans glucose uptake in tps1Δ yeast cells. Type of data set: cell-based, S. cerevisiae. The conditions noted are these: 2.5 mM glucose, tps1Δ cells. How it is done:
Zero-trans uptake of radioactively labeled [U-^14C]glucose, [U-^14C]fructose or [U-^14C]galactose by S. cerevisiae cells was determined in accordance with previous studies^44,66. Cells were grown on different carbon sources depending on the experiment. For measuring glucose uptake activity in the tps1Δ and tps1Δ hxtA strains (FIG. 1b,c), cells were grown on YP medium containing 3% glycerol (measurement of 10s). Typically, for compound characterization and kinetic studies in wild type and tps1Δ strains, cells were (pre)grown on Complete Synthetic medium supplemented with 2% galactose (measurement of 10s). In the experiments on the influence of hexokinase activity on the sugar uptake rate, the measurement duration was shortened to 5s and cells were always grown on YP medium containing 3% glycerol and 2% ethanol. After harvesting, cells were washed twice with ice-cold 25 mM MES-buffer pH 6, and resuspended in their respective medium without sugar to a final concentration of 45 mg (wet weight)/mL. The amount of added tracer was estimated to give a response close to at least 1000 counts per min in order to adequately counter background noise. Cells were first preincubated for 10 min at 30° C. with the compound to acclimate the cells to the temperature and to allow adequate interaction with the compound prior to uptake. Next, hexose sugar was mixed with the cell suspension, which was then incubated for 5 or 10 s, depending on the experiment, after which the cells were rapidly filtered over a glass microfiber filter (Whatman GF/C) and washed three times with ice-cold dH2O. The loaded filter was transferred to a scintillation vial containing 3 mL liquid scintillation cocktail (Ultima-Flo M, Perkin Elmer) and counted using the Hidex 300 SL. Three blank measurements per strain were typically included to account for background signal, for which the cells were first quenched before adding the radioactive label.

“Also recorded” adds a separate entry of the source. Like-named read-outs stand apart in the source and are kept apart here.

With `Cc1nc(SCC(=O)c2ccc3c(c2)NC(=O)CO3)c2c(-c3cccs3)csc2n1` [WBC-11C], in the data set on tps1Δ cells [1], the “Minimal rescue concentration for growth of tps1Δ cells on 2.5 mM glucose” value was determined as 50 µM. The “Glucose consumption and lactate production in KMS-12-PE cells” value in [2] was “inhibited”. The “Proliferation of MCF10A H-RAS^V12 cell line on 1 mM glucose” value in [3] is listed as “highest potency”. Moreover, in data set [3] (1 mM glucose), the “Induction of apoptosis (caspase 3/7 dye) in MCF10A H-RAS^V12 cells” value is “strong induction of apoptosis”. The “Glucose consumption and lactate production in A549 cells” value in [4] was “inhibited”. In addition, the “Proliferation of U266 cell line” value in [5] is listed as “inhibit proliferation”. Further, the “Potency in reducing maximal growth rate of A549 cells” value in [6] is reported as “most”. Also, in [7], the “Loss in body weight over 20 days” value is “no significant loss in body weight; also recorded: No significant difference”, the “AST/ALT ratio vs vehicle” value is “No significant difference” and the “Blood glucose level vs vehicle” value was “No significant difference”. For the same compound, the “Body weight drop at 10 and 5 mg/kg around day 5 and 11” value in data set [7] (daily i.p. 10 and 5 mg/kg) is on record as “small transient drop”. The “Toxic effects in organs at autopsy, 20 and 10 mg/kg” value in data set [7] (daily i.p. 20 and 10 mg/kg, not observed at lower concentrations) is “toxic effects were seen in the liver and other organs”. Besides, in [8] (Cornish-Bowden plot analysis, printed K′, read-out: K′i, 2-deoxyglucose uptake in A549 cells), the Ki was found to be 7.53 µM. In addition, in data set [8], the “Type of inhibition of 2-deoxyglucose uptake in A549 cells” value (shortened to “Type of inhibition … in A549 cells”) is “uncompetitive”. In addition, the IC50 in the data set on tps1Δ cells [9] came to 44 µM.

For the compound `Cc1nc(NCC(=O)NCc2ccco2)c2c(-c3ccccc3)csc2n1` [WBC-4C], in [2], the “Glucose consumption and lactate production in KMS-12-PE cells” value is on record as “inhibited”. For the same compound, the “Proliferation of MCF10A H-RAS^V12 cell line on 1 mM glucose” value in [3] is on record as “highest potency”. Further, the “Glucose consumption and lactate production in A549 cells” value in [4] was “inhibited”. The “Proliferation of U266 cell line” value in data set [5] is “inhibit proliferation”. Also, in [6], the “Potency in reducing maximal growth rate of A549 cells” value is “intermediate potency”. The “Weight loss of one single mouse sacrificed at day 19” value in [7] (daily i.p. 20 mg/kg) is given as 20%. The “Other abnormalities at autopsy” value in data set [7] (daily i.p. 5, 10, 20 mg/kg, 20 days) is reported as “No other abnormalities”. In addition, in data set [7], the “Loss in body weight over 20 days” value is on record as “no significant loss in body weight; also recorded: No significant difference”, the “AST/ALT ratio vs vehicle” value is recorded as “No significant difference” and the “Blood glucose level vs vehicle” value was “No significant difference”. For the same compound, the Ki in data set [8] (Dixon plot analysis, read-out: Ki (=K′i), 2-deoxyglucose uptake in A549 cells) amounted to 26.8 µM. The “Type of inhibition … in A549 cells” value in data set [8] was “noncompetitive”.

For `Cc1nc(NCC(=O)Nc2ccccc2Br)c2c(-c3cccs3)csc2n1` [WBC-15C], the “Glucose consumption and lactate production in KMS-12-PE cells” value in data set [2] was “inhibited”. Besides, the “Glucose consumption and lactate production in A549 cells” value in data set [4] is listed as “inhibited”. Moreover, the “Proliferation of U266 cell line” value in data set [5] is recorded as “inhibit proliferation”. Besides, the “Growth inhibition of A549 cells at the highest concentration” value in data set [6] (50 μM) is “failed to cause complete inhibition”. Besides, the “Potency in reducing maximal growth rate of A549 cells” value in data set [6] is recorded as “least potent”. For the same compound, the “Toxic effects in organs at autopsy, 20 mg/kg” value in data set [7] (daily i.p. 20 mg/kg, not observed at lower concentrations) is “toxic effects were seen in the liver and other organs”. In [7], the “Loss in body weight over 20 days” value was “no significant loss in body weight; also recorded: No significant difference”, the “AST/ALT ratio vs vehicle” value is given as “No significant difference” and the “Blood glucose level vs vehicle” value was “No significant difference”. In addition, the “Type of inhibition … in A549 cells” value in data set [8] is reported as “competitive”.

As usually defined, the IC50 is the concentration that inhibits the measured activity by half. High values mean a need for much substance, low ones inhibition by little substance.

Values taken from patent US20240252508A1, “Novel glucose uptake inhibitors for use in the treatment of cancer” (NOVELYEAST BV, priority 2021, published 2024).
